# Assay results reported in US20220016115A1, “USP19 INHIBITORS FOR USE IN THERAPY” (ALMAC DISCOVERY LIMITED, priority 2018, published 2022).
# Entries after “also recorded” stand apart in the source; their conditions may differ.
# What was measured:
# [1] = test system: diet-induced obese (DIO) mouse; assay: Diet-induced obesity mouse model: body weight, DEXA and carcass composition; format: in vivo
# Method: To assess obesity and insulin resistance, a diet-induced obesity mouse model was used.
# Male C57BL6/J mice were continuously provided with high-fat diet (D12451, 45% kcal as fat; Research Diets, New Jersey, USA) and filtered tap water ad libitum for the duration of the study. From day 0, mice were administered vehicle i.p. BID, USP19 inhibitor (ADC-141) i.p. BID at 5 mg/kg or 25 mg/kg, or positive control liraglutide 0.1 mg/kg s.c. BID. Mice were allocated to treatment groups to balance the groups on the basis of body weight, food and water intake prior to the start of treatment.
# Body weight was measured daily. On Day 13, body composition was assessed by DEXA. On Day 15, fasting glucose and insulin levels were measured before and during an oral glucose tolerance test (OGTT) to assess improvements in glucose control. The OGTT was performed following an overnight fast. […] An OGTT was performed the following morning (approx. 16h post fast). Mice were dosed with vehicle or test compound (starting at 08.45) to a timed schedule 30 minutes prior to the administration of the glucose challenge (2.0 g/kg po). Blood samples were taken immediately prior to dosing (B1), immediately prior to glucose administration (B2) and 15, 30, 60 and 120 minutes after glucose administration.
# After OGTT, mice were humanely killed and carcass composition was assessed. The carcass was weighed and stored frozen and the chemical composition of each carcass (fat, protein, water and ash) was determined using classical techniques. Carcass water was determined by freeze-drying the carcasses to constant weight for 2 weeks. Carcass fat was determined on samples of the dry powdered carcasses using a modified Soxhlet extraction protocol (petroleum ether at 40-60° C.) with a Tecator Soxtec 2050 system (Foss UK Ltd, Wheldrake, UK) according to the manufacturer's recommended protocol. Carcass protein was determined using a micro-Kjeldahl procedure on samples of the dry powdered carcasses using a Tecator 2012 digestion block and 2200 distilling unit (Foss UK Ltd). Residual carcass ash was determined by firing samples of the dry powdered carcasses at high temperatures using a muffle ashing furnace (Carbolite OAF 11/1). Repeat determinations of the chemical analysis parameters were performed if necessary (e.g. if the duplicate samples differed by more than 1%). Data for each body composition parameter (fat, protein, water and ash) was determined as g/carcass and % total. Final carcass weights were also analysed as a direct comparison.
# male C57bl/6 mice = assay: Sciatic nerve denervation muscle wasting model; format: in vivo; conditions: 75 mg/kg IP twice daily, vs vehicle
# Method: To induce muscle wasting, a 1 cm segment of the sciatic nerve in the thigh was removed from mice (male C57bl/6 mice at 8-10 weeks of age; n=10 per group) under isoflurane anaesthesia and analgesia with carprofen. A sham operation was carried out in the opposite leg as a control.
# Mice were randomised into Vehicle or Test groups, with all animals weighed to ensure a similar mean weight in each group. A USP19 inhibitory compound (ADC-141, which is 1-(((S)-7-((R)-3-Cyclohexyl-2-methylpropanoyl)-10-hydroxy-7-azaspiro[4.5]decan-10-yl)methyl)-4-phenyl-5-(piperazine-1-carbonyl)pyridin-2(1H)-one, corresponding to exemplary compound 212 provided herein) at 75 mg/kg or Vehicle was administered IP twice daily starting from the evening post-operation.
# Mice were sacrificed 14 days later. Fat pads, liver, gastrocnemius and tibialis anterior muscles were harvested. Tissue mass were measured in both groups.
# [2] = ADC-141 25 mg/kg ip bid, liraglutide 0.1 mg/kg sc bid
# [3] = ADC-141 25 mg/kg ip bid, liraglutide 0.1 mg/kg sc bid, vs vehicle
# [4] = DEXA, ADC-141 25 mg/kg ip bid, liraglutide 0.1 mg/kg sc bid
smiles,measurement,setting,value
"C[C@H](CC1CCCCC1)C(=O)N1CC[C@@](O)(Cn2cc(C(=O)N3CCNCC3)c(-c3ccccc3)cc2=O)C2(CCCC2)C1 [ADC-141, 1-(((S)-7-((R)-3-Cyclohexyl-2-methylpropanoyl)-10-hydroxy-7-azaspiro[4.5]decan-10-yl)methyl)-4-phenyl-5-(piperazine-1-carbonyl)pyridin-2(1H)-one]",relative water content of the carcass (percentage of total carcass mass),[1]; ADC-141 5 mg/kg ip bid,no effect
same,carcass water content (g),"[1]; ADC-141 5 mg/kg ip bid, vs vehicle",no significant effect
same,carcass protein,"[1]; ADC-141 5 mg/kg ip bid, vs vehicle-treated animals",no significant changes
same,carcass percentage fat,[1]; ADC-141 25 mg/kg ip bid,−14.6%
same,differences in body weights on the final day of the study,[1]; [2],~13%
same,loss of fat as share of the total weight lost,[1]; [2],79%
same,"percent protein (percentage of total carcass mass), increase",[1]; [2],6.0%
same,reduction in carcass fat (g) from controls,[1]; [2],24.9%
same,relative water content of the carcass (percentage of total carcass mass),[1]; [2],+11.4%
same,carcass ash content (g),[1]; [3],−9.6%
same,carcass protein content (g),[1]; [3],−7.2%
same,carcass water content (g),[1]; [3],no significant effect
same,reduction in fat mass compared to vehicle treated controls,"[1]; DEXA Day 13, liraglutide 0.1 mg/kg sc bid, dose of USP19 inhibitor not printed at place",24%
same,lean body mass change,"[1]; DEXA Day 13, vs vehicle, not significant (p>0.05)",−3%
same,total tissue mass,[1]; DEXA analysis,significant reduction
same,fat mass % (percentage of total tissue mass),[1]; [4],significantly decreased
same,lean mass % (percentage of total tissue mass),[1]; [4],increased
same,cumulative and average food intake,[1]; compared to vehicle control mice (p<0.001),reduction
same,carcass weight compared to vehicle-treated controls,"[1]; two weeks, ADC-141 25 mg/kg ip bid, liraglutide 0.1 mg/kg sc bid",~−12%
same,average weekly body weight gain,"[1]; week 1, ADC-141 25 mg/kg ip bid, liraglutide 0.1 mg/kg sc bid, vs vehicle",significantly decreased
same,average weekly body weight gain,"[1]; week 2, ADC-141 25 mg/kg ip bid, liraglutide 0.1 mg/kg sc bid, vs vehicle",significantly decreased
same,liver mass,male C57bl/6 mice; 2 weeks,increase in liver mass
same,mass of the epididymal fat pad,male C57bl/6 mice; 2 weeks,significant reduction in fat mass; also recorded: significantly smaller fat pads
same,loss of muscle mass in the tibialis anterior muscle,"male C57bl/6 mice; denervated limb, 14 days",significantly lower loss of muscle mass
same,muscle wasting in the gastrocnemius muscle,"male C57bl/6 mice; denervated limb, 14 days","reduced in the gastrocnemius muscle (FIG. 2), though the trend did not reach significance"
